tested on: mice; assay: acute toxicity (LD50), intraperitoneal administration in mice; format: in vivo; conditions: mice (male, 20 g)
Excerpt: Representative LD50 values, for example, for N^2 -(6,7-dimethoxy-2-naphthylsulfonyl)-L-arginyl-N-butylalanine and N^2 -(4,6-dimethoxy-2-naphthylsulfonyl)-L-arginyl-N-cyclohexylmethylalanine are above 1,500 milligrams per kilogram each.

| Structure (SMILES) | acute toxicity values (LD50) |
| --- | --- |
| CCCCN(C(=O)[C@H](CCCNC(=N)N)NS(=O)(=O)c1ccc2cc(OC)c(OC)cc2c1)[C@@H](C)C(=O)O [compound 2, N^2-(6,7-dimethoxy-2-naphthylsulfonyl)-L-arginyl-N-butylalanine] | above 1,500 milligrams per kilogram |
| COc1ccc2cc(S(=O)(=O)N[C@@H](CCCNC(=N)N)C(=O)N(CC3CCCCC3)[C@@H](C)C(=O)O)cc(OC)c2c1 [compound 12, N^2-(4,6-dimethoxy-2-naphthylsulfonyl)-L-arginyl-N-cyclohexylmethylalanine] | above 1,500 milligrams per kilogram |

target: T1, thrombin (Bos taurus, UniProt P00735); assay: fibrinogen coagulation time (thrombin added to bovine fibrinogen solution); format: biochemical; conditions: thrombin 5 units/ml, borate saline buffer pH 7.4, 25° C, normal coagulation time 50-55 seconds prolonged to 100-110 seconds
T1 construct: purchased Mochida Pharmaceutical Co., Ltd
Method: The measurement of the fibrinogen coagulation time was conducted as follows:
Immediately after mixing, the reaction mixture was transferred from the ice bath to a bath maintained at 25° C. Coagulation times were taken as the period between the time of transference to the 25° C bath and the time of the first appearance of fibrin threads.
The term "concentration required to prolong the coagulation time by a factor of two" is the concentration of an active ingredient required to prolong the normal coagulation time 50-55 seconds to 100-110 seconds.

| Concentration required to prolong the coagulation time by a factor of two | Structure (SMILES) |
| --- | --- |
| 2.0 µM | CCCCCN(C(=O)[C@H](CCCNC(=N)N)NS(=O)(=O)c1ccc2cc(OC)c(OC)cc2c1)[C@@H](C)C(=O)O [compound 4, N^2-(6,7-dimethoxy-2-naphthylsulfonyl)-L-arginyl-N-pentylalanine] |
| 2.5 µM | COc1cc2ccc(S(=O)(=O)N[C@@H](CCCNC(=N)N)C(=O)N(Cc3ccccc3)[C@@H](C)C(=O)O)cc2cc1OC [compound 6, N^2-(6,7-dimethoxy-2-naphthylsulfonyl)-L-arginyl-N-benzylalanine] |
| 1.5 µM | COc1cc2ccc(S(=O)(=O)N[C@@H](CCCNC(=N)N)C(=O)N(CCc3ccccc3)[C@@H](C)C(=O)O)cc2cc1OC [compound 8, N^2-(6,7-dimethoxy-2-naphthylsulfonyl)-L-arginyl-N-phenethylalanine] |
| 5 µM | COCCN(C(=O)[C@H](CCCNC(=N)N)NS(=O)(=O)c1ccc2cc(OC)c(OC)cc2c1)[C@@H](C)C(=O)O [compound 15, N^2-(6,7-dimethoxy-2-naphthylsulfonyl)-L-arginyl-N-(2-methoxyethyl)alanine] |
| 2 µM | COc1cc2ccc(S(=O)(=O)N[C@@H](CCCNC(=N)N)C(=O)N(C)[C@@H](Cc3ccccc3)C(=O)O)cc2cc1OC [compound 18, N^2-(6,7-dimethoxy-2-naphthylsulfonyl)-L-arginyl-N-methylphenylalanine] |
| 2.5 µM | COc1ccc2ccc(S(=O)(=O)N[C@@H](CCCNC(=N)N)C(=O)N(C)[C@@H](Cc3ccccc3)C(=O)O)cc2c1 [compound 20, N^2-(7-methoxy-2-naphthylsulfonyl)-L-arginyl-N-methyl-phenylalanine] |
| 15 µM | CCC[C@H](NC(=O)[C@H](CCCNC(=N)N)NS(=O)(=O)c1ccc2cc(OC)c(OC)cc2c1)C(=O)O [compound 21, N^2-(6,7-dimethoxy-2-naphthylsulfonyl)-L-arginylnorvaline] |

| Structure (SMILES) | Concentration required to prolong the coagulation time by a factor of two |
| --- | --- |
| COc1ccc2cc(S(=O)(=O)N[C@@H](CCCNC(=N)N)C(=O)N(CC3CCCCC3)[C@@H](C)C(=O)O)cc(OC)c2c1 [compound 12, N^2-(4,6-dimethoxy-2-naphthylsulfonyl)-L-arginyl-N-cyclohexylmethylalanine] | 4.5 µM |
